pIC50: −log10 of the molar value.
Test system: MCF7 complex spheroid growth, % test/control
Assay: Anticancer human tumor MCF7 cell line growth inhibition [Asc];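 further: spheroids exposed to compounds for 7 days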;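 on viability, T/C: 100% = DMSO vehicle control wells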
Settings: for pIC50: curve of first compound; for viability, T/C: stronger effect = lower value
Procedure, shortened: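 Complex spheroids combining tumor cells with HUVEC endothelial cells and human MSCs, at 37 degrees C, 5% CO2; agents tested alone or combined, half-log dilutions from at or near clinical Cmax, or 10 microM if Cmax unknown.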

For `COc1c(OCCCN2CCOCC2)ccc2c3n(c(=NC(=O)c4cnc(N)nc4)nc12)CCN3` + CCN1C(C(=O)NC23CCC(C(=O)O)(CC2)CC3)C(c2cccc(Cl)c2F)C2(C(=O)Nc3cc(Cl)ccc32)C12CCCCC2, the pIC50 (second compound 0.00949 µM) was 7.32, the pIC50 (second compound 0.03 µM) was 7.37 and the pIC50 (second compound 0.0949 µM) was greater than 8.50. It also gave a pIC50 (second compound 0.3 µM) greater than 8.50, a pIC50 (second compound 0.949 µM) greater than 8.50 and a pIC50 (second compound 3 µM) greater than 8.50. The viability, T/C (second compound 0.00949 µM, first compound 0.00316 µM) was 98.8%, the viability, T/C (second compound 0.00949 µM, first compound 0.01 µM) was 70% and the viability, T/C (second compound 0.00949 µM, first compound 0.0316 µM) was 54.6%. The viability, T/C (second compound 0.00949 µM, first compound 0.1 µM) was 49%, the viability, T/C (second compound 0.00949 µM, first compound 0.316 µM) was 14.4% and the viability, T/C (second compound 0.00949 µM, first compound 1 µM) was 9.39%. The viability, T/C (second compound 0.03 µM, first compound 0.00316 µM) was 78.7%, the viability, T/C (second compound 0.03 µM, first compound 0.01 µM) was 77.8% and the viability, T/C (second compound 0.03 µM, first compound 0.0316 µM) was 56.1%. The viability, T/C (second compound 0.03 µM, first compound 0.1 µM) was 29%, the viability, T/C (second compound 0.03 µM, first compound 0.316 µM) was 7.5% and the viability, T/C (second compound 0.03 µM, first compound 1 µM) was 9%. The viability, T/C (second compound 0.0949 µM, first compound 0.00316 µM) was 47.8%, the viability, T/C (second compound 0.0949 µM, first compound 0.01 µM) was 50.3% and the viability, T/C (second compound 0.0949 µM, first compound 0.0316 µM) was 36.6%. It also gave a viability, T/C (second compound 0.0949 µM, first compound 0.1 µM) of 18.4%, a viability, T/C (second compound 0.0949 µM, first compound 0.316 µM) of 8.59% and a viability, T/C (second compound 0.0949 µM, first compound 1 µM) of 8.82%. It also gave a viability, T/C (second compound 0.3 µM, first compound 0.00316 µM) of 26.4%, a viability, T/C (second compound 0.3 µM, first compound 0.01 µM) of 21.5% and a viability, T/C (second compound 0.3 µM, first compound 0.0316 µM) of 12.6%. It also gave a viability, T/C (second compound 0.3 µM, first compound 0.1 µM) of 4.54%, a viability, T/C (second compound 0.3 µM, first compound 0.316 µM) of 7.49% and a viability, T/C (second compound 0.3 µM, first compound 1 µM) of 8.96%. For the same compound, the viability, T/C (second compound 0.949 µM, first compound 0.00316 µM) was 17.9%, the viability, T/C (second compound 0.949 µM, first compound 0.01 µM) was 10.1% and the viability, T/C (second compound 0.949 µM, first compound 0.0316 µM) was 4.6%. The viability, T/C (second compound 0.949 µM, first compound 0.1 µM) was 6.32%, the viability, T/C (second compound 0.949 µM, first compound 0.316 µM) was 8.83% and the viability, T/C (second compound 0.949 µM, first compound 1 µM) was 8.95%. It also gave a viability, T/C (second compound 3 µM, first compound 0.00316 µM) of 9.35%, a viability, T/C (second compound 3 µM, first compound 0.01 µM) of 5.25% and a viability, T/C (second compound 3 µM, first compound 0.0316 µM) of 6.94%. The viability, T/C (second compound 3 µM, first compound 0.1 µM) was 6.59%, the viability, T/C (second compound 3 µM, first compound 0.316 µM) was 9.64% and the viability, T/C (second compound 3 µM, first compound 1 µM) was 10%.
For `O=C(c1cc(Cc2n[nH]c(=O)c3ccccc23)ccc1F)N1CCN(C(=O)C2CC2)CC1` + CNC(C)C(=O)NC1CN(S(=O)(=O)c2cccc(S(=O)(=O)N3CCC4CCC(C(=O)NC(c5ccccc5)c5ccccc5)N4C(=O)C(NC(=O)C(C)NC)C3)c2)CCC2CCC(C(=O)NC(c3ccccc3)c3ccccc3)N2C1=O, the pIC50 (second compound 0.00316 µM) was greater than 7.50, the pIC50 (second compound 0.01 µM) was greater than 7.50 and the pIC50 (second compound 0.0316 µM) was greater than 7.50. The pIC50 (second compound 0.1 µM) was greater than 7.50, the pIC50 (second compound 0.316 µM) was greater than 7.50 and the pIC50 (second compound 1 µM) was greater than 7.50. For the same compound, the viability, T/C (second compound 0.00316 µM, first compound 0.0316 µM) was 10.6%, the viability, T/C (second compound 0.00316 µM, first compound 0.1 µM) was 15.2% and the viability, T/C (second compound 0.00316 µM, first compound 0.316 µM) was 8.86%. The viability, T/C (second compound 0.00316 µM, first compound 1 µM) was 10.7%, the viability, T/C (second compound 0.00316 µM, first compound 3.16 µM) was 10.2% and the viability, T/C (second compound 0.00316 µM, first compound 10 µM) was 11.4%. For the same compound, the viability, T/C (second compound 0.01 µM, first compound 0.0316 µM) was 16.2%, the viability, T/C (second compound 0.01 µM, first compound 0.1 µM) was 14.4% and the viability, T/C (second compound 0.01 µM, first compound 0.316 µM) was 14.5%. The viability, T/C (second compound 0.01 µM, first compound 1 µM) was 15.3%, the viability, T/C (second compound 0.01 µM, first compound 3.16 µM) was 16.9% and the viability, T/C (second compound 0.01 µM, first compound 10 µM) was 14%. The viability, T/C (second compound 0.0316 µM, first compound 0.0316 µM) was 13.8%, the viability, T/C (second compound 0.0316 µM, first compound 0.1 µM) was 12% and the viability, T/C (second compound 0.0316 µM, first compound 0.316 µM) was 11.5%. The viability, T/C (second compound 0.0316 µM, first compound 1 µM) was 13.1%, the viability, T/C (second compound 0.0316 µM, first compound 3.16 µM) was 11.4% and the viability, T/C (second compound 0.0316 µM, first compound 10 µM) was 12.3%. The viability, T/C (second compound 0.1 µM, first compound 0.0316 µM) was 13%, the viability, T/C (second compound 0.1 µM, first compound 0.1 µM) was 13.8% and the viability, T/C (second compound 0.1 µM, first compound 0.316 µM) was 11.8%. The viability, T/C (second compound 0.1 µM, first compound 1 µM) was 13.8%, the viability, T/C (second compound 0.1 µM, first compound 3.16 µM) was 12.1% and the viability, T/C (second compound 0.1 µM, first compound 10 µM) was 11.4%. For the same compound, the viability, T/C (second compound 0.316 µM, first compound 0.0316 µM) was 14.7%, the viability, T/C (second compound 0.316 µM, first compound 0.1 µM) was 12.3% and the viability, T/C (second compound 0.316 µM, first compound 0.316 µM) was 11.8%. The viability, T/C (second compound 0.316 µM, first compound 1 µM) was 12.3%, the viability, T/C (second compound 0.316 µM, first compound 3.16 µM) was 11.3% and the viability, T/C (second compound 0.316 µM, first compound 10 µM) was 13.5%. It also gave a viability, T/C (second compound 1 µM, first compound 0.0316 µM) of 11.1%, a viability, T/C (second compound 1 µM, first compound 0.1 µM) of 10.9% and a viability, T/C (second compound 1 µM, first compound 0.316 µM) of 13.7%. The viability, T/C (second compound 1 µM, first compound 1 µM) was 10.9%, the viability, T/C (second compound 1 µM, first compound 3.16 µM) was 11.9% and the viability, T/C (second compound 1 µM, first compound 10 µM) was 14.3%.

— PubChem BioAssay AID1963445 (Molecular Pharmacology Branch, DTP, NCI, 2024)
